Source: the supplement of paper PMC10733146

Columns and labels:
Experiment in all cases: viability relative to DMSO control (fraction); higher = less drug effect (more viable cells)
Conditions in all cases: 48 h
[1] = tested on: primary ALL patient cells (S088)
Outline: (§1)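 Viability was quantified by CellTiter-Glo luminescence and related to the median of 16 inner DMSO wells. Before that, primary mononuclear tumour cells, fresh or cryopreserved and Ficoll-isolated from blood or bone marrow or prepared from processed lymph node, were plated at 4 × 10^4 cells per well in 384-well plates containing pre-plated compounds at five concentrations, one well each. Plates were incubated in RPMI-1640 with penicillin/streptomycin, L-glutamine and human serum at 37 °C and 5% CO2 for 48 h.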

[2] = tested on: primary BL patient cells (S005)
Outline: as §1

[3] = tested on: primary AML patient cells (S012)
Outline: as §1

[4] = tested on: primary MCL patient cells (S053)
Outline: as §1

[5] = tested on: primary AML patient cells (S060)
Outline: as §1

[6] = tested on: primary B-PLL patient cells (S016)
Outline: as §1

[7] = tested on: primary AML patient cells (S072)
Outline: as §1

[8] = tested on: primary DLBCL patient cells (S082)
Outline: as §1

[9] = tested on: primary AML patient cells (S009)
Outline: as §1

[10] = tested on: primary AML patient cells (S056)
Outline: as §1

[11] = tested on: primary AML patient cells (S071)
Outline: as §1

[12] = tested on: primary FL patient cells (S087)
Outline: as §1

[13] = tested on: primary AML patient cells (S085)
Outline: as §1

[14] = tested on: primary MCL patient cells (S041)
Outline: as §1

[15] = tested on: primary CLL patient cells (S031)
Outline: as §1

[16] = tested on: primary CLL patient cells (S043)
Outline: as §1

[17] = tested on: primary AML patient cells (S079)
Outline: as §1

[18] = tested on: primary MCL patient cells (S063)
Outline: as §1

[19] = tested on: primary AML patient cells (S017)
Outline: as §1

[20] = tested on: primary AML patient cells (S006)
Outline: as §1

CCc1cnn2c(NCc3ccc[n+]([O-])c3)cc(N3CCCC[C@H]3CCO)nc12 [Dinaciclib]
viability ([1]; 0.0016 µM): 0.644 | viability ([1]; 0.008 µM): 0.0942 | viability ([1]; 0.04 µM): 0.0343 | viability ([1]; 0.2 µM): 0.0308 | viability ([1]; 1 µM): 0.0318 | viability ([2]; 0.0016 µM): 0.866 | viability ([2]; 0.008 µM): 0.792 | viability ([2]; 0.04 µM): 0.848 | viability ([2]; 0.2 µM): 0.867 | viability ([2]; 1 µM): 1.01 | viability ([3]; 0.0016 µM): 1.1 | viability ([3]; 0.008 µM): 0.473 | viability ([3]; 0.04 µM): 0.0686 | viability ([3]; 0.2 µM): 0.0607 | viability ([3]; 1 µM): 0.0676 | viability ([4]; 0.0016 µM): 0.881 | viability ([4]; 0.008 µM): 0.534 | viability ([4]; 0.04 µM): 0.755 | viability ([4]; 0.2 µM): 0.9 | viability ([4]; 1 µM): 1.08 | viability ([5]; 0.0016 µM): 1.12 | viability ([5]; 0.008 µM): 0.0838 | viability ([5]; 0.04 µM): 0.0221 | viability ([5]; 0.2 µM): 0.0219 | viability ([5]; 1 µM): 0.0206 | viability ([6]; 0.0016 µM): 1.07 | viability ([6]; 0.008 µM): 0.047 | viability ([6]; 0.04 µM): 0.0409 | viability ([6]; 0.2 µM): 0.0324 | viability ([6]; 1 µM): 0.0324 | viability ([7]; 0.0016 µM): 0.979 | viability ([7]; 0.008 µM): 0.169 | viability ([7]; 0.04 µM): 0.0691 | viability ([7]; 0.2 µM): 0.0617 | viability ([7]; 1 µM): 0.065 | viability ([8]; 0.0016 µM): 0.98 | viability ([8]; 0.008 µM): 0.102 | viability ([8]; 0.04 µM): 0.0294 | viability ([8]; 0.2 µM): 0.0307 | viability ([8]; 1 µM): 0.0332 | viability ([9]; 0.0016 µM): 1.06 | viability ([9]; 0.008 µM): 0.189 | viability ([9]; 0.04 µM): 0.0815 | viability ([9]; 0.2 µM): 0.0774 | viability ([9]; 1 µM): 0.0863 | viability ([10]; 0.0016 µM): 0.898 | viability ([10]; 0.008 µM): 0.0944 | viability ([10]; 0.04 µM): 0.101 | viability ([10]; 0.2 µM): 0.0868 | viability ([10]; 1 µM): 0.0937 | viability ([11]; 0.0016 µM): 0.966 | viability ([11]; 0.008 µM): 0.105 | viability ([11]; 0.04 µM): 0.107 | viability ([11]; 0.2 µM): 0.0985 | viability ([11]; 1 µM): 0.0952 | viability ([12]; 0.0016 µM): 0.962 | viability ([12]; 0.008 µM): 0.641 | viability ([12]; 0.04 µM): 0.759 | viability ([12]; 0.2 µM): 0.756 | viability ([12]; 1 µM): 0.829 | viability ([13]; 0.0016 µM): 1 | viability ([13]; 0.008 µM): 0.11 | viability ([13]; 0.04 µM): 0.0634 | viability ([13]; 0.2 µM): 0.0552 | viability ([13]; 1 µM): 0.0573 | viability ([14]; 0.0016 µM): 0.938 | viability ([14]; 0.008 µM): 0.0691 | viability ([14]; 0.04 µM): 0.0382 | viability ([14]; 0.2 µM): 0.0378 | viability ([14]; 1 µM): 0.0402 | viability ([15]; 0.0016 µM): 0.744 | viability ([15]; 0.008 µM): 0.0197 | viability ([15]; 0.04 µM): 0.018 | viability ([15]; 0.2 µM): 0.0169 | viability ([15]; 1 µM): 0.0188 | viability ([16]; 0.0016 µM): 1.08 | viability ([16]; 0.008 µM): 0.0742 | viability ([16]; 0.04 µM): 0.0345 | viability ([16]; 0.2 µM): 0.0401 | viability ([16]; 1 µM): 0.0459 | viability ([17]; 0.0016 µM): 1 | viability ([17]; 0.008 µM): 0.153 | viability ([17]; 0.04 µM): 0.028 | viability ([17]; 0.2 µM): 0.0285 | viability ([17]; 1 µM): 0.0293 | viability ([18]; 0.0016 µM): 1 | viability ([18]; 0.008 µM): 0.0229 | viability ([18]; 0.04 µM): 0.0173 | viability ([18]; 0.2 µM): 0.0173 | viability ([18]; 1 µM): 0.0157 | viability ([19]; 0.0016 µM): 0.994 | viability ([19]; 0.008 µM): 0.401 | viability ([19]; 0.04 µM): 0.0509 | viability ([19]; 0.2 µM): 0.0474 | viability ([19]; 1 µM): 0.0503

C[C@@H](Oc1cc(-c2cnn(C3CCNCC3)c2)cnc1N)c1c(Cl)ccc(F)c1Cl [Crizotinib]
viability ([1]; 0.024 µM): 0.93 | viability ([1]; 0.12 µM): 0.956 | viability ([1]; 0.6 µM): 0.798 | viability ([1]; 3 µM): 0.568 | viability ([1]; 15 µM): 0.0811 | viability ([2]; 0.024 µM): 0.975 | viability ([2]; 0.12 µM): 0.986 | viability ([2]; 0.6 µM): 0.905 | viability ([2]; 3 µM): 0.766 | viability ([2]; 15 µM): 0.309 | viability ([3]; 0.024 µM): 1 | viability ([3]; 0.12 µM): 1.06 | viability ([3]; 0.6 µM): 0.999 | viability ([3]; 3 µM): 0.992 | viability ([3]; 15 µM): 0.163 | viability ([5]; 0.024 µM): 0.926 | viability ([5]; 0.12 µM): 0.931 | viability ([5]; 0.6 µM): 0.931 | viability ([5]; 3 µM): 0.841 | viability ([5]; 15 µM): 0.445 | viability ([6]; 0.024 µM): 0.971 | viability ([6]; 0.12 µM): 0.944 | viability ([6]; 0.6 µM): 0.874 | viability ([6]; 3 µM): 0.88 | viability ([6]; 15 µM): 0.255 | viability ([7]; 0.024 µM): 0.903 | viability ([7]; 0.12 µM): 0.983 | viability ([7]; 0.6 µM): 0.838 | viability ([7]; 3 µM): 0.602 | viability ([7]; 15 µM): 0.127 | viability ([8]; 0.024 µM): 0.975 | viability ([8]; 0.12 µM): 0.989 | viability ([8]; 0.6 µM): 1.01 | viability ([8]; 3 µM): 0.916 | viability ([8]; 15 µM): 0.36 | viability ([9]; 0.024 µM): 0.984 | viability ([9]; 0.12 µM): 0.895 | viability ([9]; 0.6 µM): 0.761 | viability ([9]; 3 µM): 0.57 | viability ([9]; 15 µM): 0.147 | viability ([20]; 0.024 µM): 0.944 | viability ([20]; 0.12 µM): 0.926 | viability ([20]; 0.6 µM): 0.695 | viability ([20]; 3 µM): 0.491 | viability ([20]; 15 µM): 0.18 | viability ([10]; 0.024 µM): 1.13 | viability ([10]; 0.12 µM): 0.919 | viability ([10]; 0.6 µM): 1.07 | viability ([10]; 3 µM): 0.857 | viability ([10]; 15 µM): 0.084 | viability ([11]; 0.024 µM): 0.879 | viability ([11]; 0.12 µM): 0.837 | viability ([11]; 0.6 µM): 0.556 | viability ([11]; 3 µM): 0.363 | viability ([11]; 15 µM): 0.0351 | viability ([12]; 0.024 µM): 0.979 | viability ([12]; 0.12 µM): 1.03 | viability ([12]; 0.6 µM): 0.999 | viability ([12]; 3 µM): 0.821 | viability ([12]; 15 µM): 0.111 | viability ([13]; 0.024 µM): 1.04 | viability ([13]; 0.12 µM): 1.02 | viability ([13]; 0.6 µM): 0.822 | viability ([13]; 3 µM): 0.434 | viability ([13]; 15 µM): 0.18 | viability ([14]; 0.024 µM): 0.97 | viability ([14]; 0.12 µM): 1 | viability ([14]; 0.6 µM): 0.879 | viability ([14]; 3 µM): 0.79 | viability ([14]; 15 µM): 0.221 | viability ([15]; 0.024 µM): 1.1 | viability ([15]; 0.12 µM): 1.08 | viability ([15]; 0.6 µM): 1.12 | viability ([15]; 3 µM): 0.712 | viability ([15]; 15 µM): 0.194 | viability ([16]; 0.024 µM): 0.95 | viability ([16]; 0.12 µM): 0.977 | viability ([16]; 0.6 µM): 0.949 | viability ([16]; 3 µM): 0.772 | viability ([16]; 15 µM): 0.4 | viability ([17]; 0.024 µM): 0.977 | viability ([17]; 0.12 µM): 0.953 | viability ([17]; 0.6 µM): 0.872 | viability ([17]; 3 µM): 0.659 | viability ([17]; 15 µM): 0.256 | viability ([18]; 0.024 µM): 0.942 | viability ([18]; 0.12 µM): 1.03 | viability ([18]; 0.6 µM): 1 | viability ([18]; 3 µM): 0.896 | viability ([18]; 15 µM): 0.254 | viability ([19]; 0.024 µM): 1.03 | viability ([19]; 0.12 µM): 1.03 | viability ([19]; 0.6 µM): 1.02 | viability ([19]; 3 µM): 0.636 | viability ([19]; 15 µM): 0.299
